The subject of one data set is Plasma. Kind of data set: Drug level in rat plasma treated with ELA at 37 degC after 2 hrs by HPLC-MS analysis. The class given is ADME, cell-free.
Data set [1] deals with T1, Apelin receptor (Homo sapiens, UniProt P35414).
T1 sequence (P35414 whole entry): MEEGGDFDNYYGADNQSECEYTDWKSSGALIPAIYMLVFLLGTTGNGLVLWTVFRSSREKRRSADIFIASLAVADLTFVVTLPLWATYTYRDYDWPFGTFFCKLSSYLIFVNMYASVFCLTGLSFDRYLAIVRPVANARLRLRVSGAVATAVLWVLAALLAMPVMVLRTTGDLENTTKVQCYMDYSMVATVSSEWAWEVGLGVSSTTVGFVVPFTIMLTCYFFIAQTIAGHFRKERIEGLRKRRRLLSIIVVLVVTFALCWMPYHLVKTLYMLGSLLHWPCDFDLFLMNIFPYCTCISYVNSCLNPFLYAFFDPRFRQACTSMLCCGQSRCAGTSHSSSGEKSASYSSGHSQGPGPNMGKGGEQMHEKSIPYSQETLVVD
As to the kind of experiment: biochemical. It counts as cell-based, HEK293.

For data set [2], the target named is T1, Apelin receptor. Kind of data set: Agonist activity at human APJ receptor expressed in HEK-293 cells assessed as beta-arrestin2 recruitment after 30 mins by BRET assay. It counts as cell-based, HEK293.
In data set [3] the target is T1, Apelin receptor. As to the kind of experiment: Agonist activity at human APJ receptor expressed in HEK-293 cells assessed as dissociation of G-alpha-i1 protein after 5 mins by BRET assay. The class given is cell-based, HEK293. On the technique in general: In BRET a luciferase serves as donor, and the signal depends on an acceptor being close.
The test system of data set [4] is Rattus norvegicus. Kind of data set: Decrease in Na+ concentration in Sprague-Dawley rat urine at 36 pmol/g/min, iv through 24 hrs infusion relative to control. It counts as functional, organism-based.
In data set [5] the test system is Rattus norvegicus. Kind of data set: Hypotensive activity in anesthetized Sprague-Dawley rat assessed as maximal change in heart rate at 293 nmol/kg, iv as bolus dose. It counts as functional, organism-based.
For data set [6], the system named is Rattus norvegicus. Kind of data set: Decrease in urine osmolality in Sprague-Dawley rat at 36 pmol/g/min, iv through 24 hrs infusion relative to control. It counts as functional, organism-based.
For data set [7], the system named is Rattus norvegicus. As to the kind of experiment: Change in plasma volume in Sprague-Dawley rat at 36 pmol/g/min, iv through 24 hrs infusion measured during compound dosing. It counts as functional, organism-based.
Data set [8] deals with Rattus norvegicus. As to the kind of experiment: Inotropic activity in Sprague-Dawley rat assessed as induction of left ventricular fractional shortening at 36 pmol/g/min, iv through 24 hrs infusion measured after 6 to 24 hrs by echocardiography. The class given is functional, organism-based. The settings on record: Heart left ventricle.
The test system of data set [9] is Heart. Kind of data set: Inotropic activity in Langendorff perfused Sprague-Dawley rat heart assessed as increase in left ventricular developed pressure at 0.03 nM relative to control. It counts as functional. The note with it: Heart left ventricle.
In data set [10] the test system is Rattus norvegicus. As to the kind of experiment: Change in water intake in Sprague-Dawley rat at 36 pmol/g/min, iv through 24 hrs infusion measured during compound dosing. It counts as functional, organism-based.
The subject of data set [11] is Rattus norvegicus. As to the kind of experiment: Increase in daily urine output in Sprague-Dawley rat at 36 pmol/g/min, iv through 24 hrs infusion measured during compound dosing. The class given is functional, organism-based.
In data set [12] the test system is Rattus norvegicus. As to the kind of experiment: Hypotensive activity in anesthetized Sprague-Dawley rat assessed as induction of hypotensive rebound at 6.5 to 293 nmol/kg, iv as bolus dose. The class given is functional, organism-based.
The test system of data set [13] is Rattus norvegicus. As to the kind of experiment: Decrease in K+ concentration in Sprague-Dawley rat urine at 36 pmol/g/min, iv through 24 hrs infusion relative to control. The class given is functional, organism-based.
The subject of data set [14] is Rattus norvegicus. As to the kind of experiment: Hypotensive activity in anesthetized Sprague-Dawley rat assessed as drop in mean arterial pressure at 650 nmol/kg, iv as bolus dose. It counts as functional, Artery.
For data set [15], the system named is Rattus norvegicus. Kind of data set: Hypotensive activity in anesthetized Sprague-Dawley rat at 65 nmol/kg, iv as bolus dose. The class given is functional, organism-based.
Data set [16] in a line: Half life in rat plasma at 37 degC. The class given is ADME, cell-free.
Data set [17] deals with Heart. As to the kind of experiment: Inotropic activity in Langendorff perfused Sprague-Dawley rat heart assessed as increase in left ventricular developed pressure. The class given is functional, tissue-based. The settings on record: Heart left ventricle.

Calls of active or inactive are those of the source. The calls are words filed in the database; no cut-off is given here. Bounds are passed on as bounds.

Experimental findings from ChEMBL document CHEMBL3808382, “Discovery and Structure-Activity Relationship of a Bioactive Fragment of ELABELA that Modulates Vascular and Cardiac Functions” (J Med Chem, 2016) are described below.

Turning to `CSCC[C@H](NC(=O)[C@@H]1CSSC[C@H](NC(=O)[C@H](CC(N)=O)NC(=O)[C@H](Cc2c[nH]cn2)NC(=O)[C@H](CCCCN)NC(=O)[C@H](CCCNC(=N)N)NC(=O)[C@H](CC(C)C)NC(=O)[C@@H](N)CCCCN)C(=O)N[C@@H](CC(C)C)C(=O)N[C@@H](CCC(N)=O)C(=O)N[C@@H](CCCNC(=N)N)C(=O)N[C@@H](CCCNC(=N)N)C(=O)N1)C(=O)N1CCC[C@H]1C(=O)N[C@@H](CC(C)C)C(=O)N[C@@H](Cc1c[nH]cn1)C(=O)N[C@@H](CO)C(=O)N[C@@H](CCCNC(=N)N)C(=O)N[C@H](C(=O)N1CCC[C@H]1C(=O)N[C@@H](Cc1ccccc1)C(=O)N1CCC[C@H]1C(=O)O)C(C)C`, the Drug metabolism result in the data set with Plasma is given as “metabolite_detected”.
In general, Ki refers to the dissociation constant of the complex between target and ligand, obtained from inhibition or displacement. The EC50 is the concentration needed to bring the measured effect to its halfway point. On Apelin receptor [1], `CSCC[C@H](NC(=O)[C@@H]1CSSC[C@H](N)C(=O)N[C@@H](CC(C)C)C(=O)N[C@@H](CCC(N)=O)C(=O)N[C@@H](CCCNC(=N)N)C(=O)N[C@@H](CCCNC(=N)N)C(=O)N1)C(=O)N1CCC[C@H]1C(=O)N[C@@H](CC(C)C)C(=O)N[C@@H](Cc1cnc[nH]1)C(=O)N[C@@H](CO)C(=O)N[C@@H](CCCNC(=N)N)C(=O)N[C@H](C(=O)N1CCC[C@H]1C(=O)N[C@@H](Cc1ccccc1)C(=O)N1CCC[C@H]1C(=O)O)C(C)C` yielded a Ki of 0.23 nM. Moreover, the figures for the EC50 on Apelin receptor [2] and at Apelin receptor [3] were 151 nM and 6.6 nM, respectively.
On to `CSCC[C@@H](NC(=O)[C@@H](CS)NC(=O)[C@@H](CCCNC(=N)N)NC(=O)[C@H](CCCNC(=N)N)NC(=O)[C@H]1CCC(=O)N1)C(=O)N1CCC[C@@H]1C(=O)N[C@H](CC(C)C)C(=O)N[C@H](Cc1cnc[nH]1)C(=O)N[C@H](CO)C(=O)N[C@H](CCCNC(=N)N)C(=O)N[C@@H](C(=O)N1CCC[C@@H]1C(=O)N[C@H](Cc1ccccc1)C(=O)N1CCC[C@@H]1C(=O)O)C(C)C`, for which the outcome in the data set on Rattus norvegicus [4], with Rattus norvegicus [5], in the data set with Rattus norvegicus [6], in the data set with Rattus norvegicus [8], in the data set with Heart [9] and in the data set on Rattus norvegicus [11] was Active. Besides, the result in the data set with Rattus norvegicus [13] was Active. For the same compound, the outcome with Rattus norvegicus [7], in the data set on Rattus norvegicus [10] and in the data set on Rattus norvegicus [12] was inactive.
As to `CSCC[C@H](NC(=O)[C@@H](N)CS)C(=O)N1CCC[C@H]1C(=O)N[C@@H](CC(C)C)C(=O)N[C@@H](Cc1cnc[nH]1)C(=O)N[C@@H](CO)C(=O)N[C@@H](CCCNC(=N)N)C(=O)N[C@H](C(=O)N1CCC[C@H]1C(=O)N[C@@H](Cc1ccccc1)C(=O)N1CCC[C@H]1C(=O)O)C(C)C`, in the data set on Rattus norvegicus [14], the Activity was 10 mmHg.
As for `CSCC[C@H](NC(=O)[C@H](N)CS)C(=O)N1CCC[C@H]1C(=O)N[C@@H](CC(C)C)C(=O)N[C@@H](Cc1cnc[nH]1)C(=O)N[C@@H](CO)C(=O)N[C@@H](CCCNC(=N)N)C(=O)N[C@H](C(=O)N1CCC[C@H]1C(=O)N[C@@H](Cc1ccccc1)C(=O)N1CCC[C@H]1C(=O)O)C(C)C`, in the data set with Rattus norvegicus [15], the result was inactive.
What is called half-life is how long it takes for the measured level to halve. `CSCC[C@H](NC(=O)[C@H](CS)NC(=O)[C@H](CCCNC(=N)N)NC(=O)[C@H](CCCNC(=N)N)NC(=O)[C@@H]1CCC(=O)N1)C(=O)N1CCC[C@H]1C(=O)N[C@@H](CC(C)C)C(=O)N[C@@H](Cc1cnc[nH]1)C(=O)N[C@@H](CO)C(=O)N[C@@H](CCCNC(=N)N)C(=O)N[C@H](C(=O)N1CCC[C@H]1C(=O)N[C@@H](Cc1ccccc1)C(=O)N1CCC[C@H]1C(=O)O)C(C)C` returned a half-life in [16] of under 2 min. Moreover, the concentration giving a half-maximal response (EC50) in the data set on Heart [17] is 0.0015 nM.
H-QRPVNLTMR-OH: the Drug metabolism entry in the data set on Plasma was “metabolite_detected”.
